IC50 data for one molecule are collected here from PMC3266282, “Role of AMP-Activated Protein Kinase on Steroid Hormone Biosynthesis in Adrenal NCI-H295R Cells” (PLoS ONE, 2012).

The structures appear in SMILES notation.

The assay addresses T1, CYP17A1 (17α-hydroxylase/17,20 lyase) (Homo sapiens, UniProt P05093).
T1 construct: human recombinant CYP17A1 co-expressed with POR in yeast microsomes; with human P450 oxidoreductase (POR)
T1 sequence (P05093 1-508): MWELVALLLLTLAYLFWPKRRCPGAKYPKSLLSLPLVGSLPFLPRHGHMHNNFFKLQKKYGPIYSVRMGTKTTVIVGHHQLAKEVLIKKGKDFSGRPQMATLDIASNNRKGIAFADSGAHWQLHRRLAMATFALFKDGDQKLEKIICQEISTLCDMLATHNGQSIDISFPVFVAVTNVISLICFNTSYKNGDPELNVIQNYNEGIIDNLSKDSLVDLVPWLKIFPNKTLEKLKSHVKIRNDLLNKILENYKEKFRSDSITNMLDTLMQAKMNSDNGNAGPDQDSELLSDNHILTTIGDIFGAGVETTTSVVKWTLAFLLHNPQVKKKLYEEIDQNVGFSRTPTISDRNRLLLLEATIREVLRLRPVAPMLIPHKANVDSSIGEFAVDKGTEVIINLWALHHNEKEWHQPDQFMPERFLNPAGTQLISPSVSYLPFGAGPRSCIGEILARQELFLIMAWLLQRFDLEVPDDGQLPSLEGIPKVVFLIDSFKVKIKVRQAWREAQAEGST
T1 sequence (P16435 2-677 partner): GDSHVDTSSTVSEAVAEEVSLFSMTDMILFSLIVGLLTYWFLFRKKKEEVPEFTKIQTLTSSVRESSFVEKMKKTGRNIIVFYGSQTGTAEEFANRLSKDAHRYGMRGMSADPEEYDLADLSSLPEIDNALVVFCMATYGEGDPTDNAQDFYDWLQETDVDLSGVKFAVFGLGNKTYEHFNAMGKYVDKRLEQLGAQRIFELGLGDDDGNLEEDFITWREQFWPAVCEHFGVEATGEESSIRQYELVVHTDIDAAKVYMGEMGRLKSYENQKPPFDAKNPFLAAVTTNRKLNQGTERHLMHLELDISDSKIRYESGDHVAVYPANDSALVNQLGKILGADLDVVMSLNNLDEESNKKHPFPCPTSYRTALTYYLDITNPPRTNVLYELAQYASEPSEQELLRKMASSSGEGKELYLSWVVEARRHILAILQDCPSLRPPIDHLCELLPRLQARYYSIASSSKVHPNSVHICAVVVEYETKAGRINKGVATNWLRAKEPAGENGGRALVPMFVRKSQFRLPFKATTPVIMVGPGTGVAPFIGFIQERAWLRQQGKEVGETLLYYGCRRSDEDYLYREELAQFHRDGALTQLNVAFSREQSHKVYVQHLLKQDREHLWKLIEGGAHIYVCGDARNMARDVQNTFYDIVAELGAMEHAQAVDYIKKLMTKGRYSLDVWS
The assay is described as follows: […]α-hydroxylase activity in yeast microsomes with radiolabelled steroid substrate, TLC readout, dose-response. The assay is classed as biochemical.

Take `c1cc(-c2cnn3cc(-c4ccc(OCCN5CCCCC5)cc4)cnc23)ccn1` [compound C]: the IC50 was determined as 9.6 nM.

A word on the IC50: it is the concentration that inhibits the measured activity by half.
